Reference: paper PMC7532663, “Pharmacological inhibition of mTORC1 increases CCKBR-specific tumor uptake of radiolabeled minigastrin analogue [^177Lu]Lu-PP-F11N” (Theranostics, 2020)

system: A431/CCKBR cells; experiment: CellTiter 96 AQueous (MTS) proliferation assay; format: cell-based, human; settings: not given

Going from `N#C/C(=C\c1ccc(O)c(O)c1)C(N)=S` [TYRPHOSTIN 47] to `CC[C@H](CO)Nc1nc(NCc2ccccc2)c2ncn(C(C)C)c2n1` [Roscovi tine], the “Proliferation [A570]” value falls from 0.98 to 0.91.

Going from `C[S+]([O-])c1ccc(-c2nc(-c3ccncc3)c(-c3ccc(F)cc3)[nH]2)cc1` (stereo not shown) [SB-203580] to `CCCCCCCCCCCCC/C=C/[C@@H](O)[C@@H](N)CO` [D-erythro-Sphingosine], the “Proliferation [A570]” value rises from 0.95 to 0.96.

same assay, conditions: 10 μM kinase inhibitor; MTS absorbance at 570 nm, reference 650 nm; mean of triplicate

Going from `Cc1cc(O)c2c(=O)c3c(O)cc(O)c4c5c(O)cc(O)c6c(=O)c7c(O)cc(C)c8c1c2c(c34)c(c78)c65` [Hypericin] to `O=c1cc(-c2ccc(O)cc2)oc2cc(O)cc(O)c12` [Apigenin], the “Proliferation [A570]” value falls from 0.93 to 0.90.

Going from `N#C/C(=C\c1ccc(O)c(O)c1)C(N)=O` [TYRPHOSTIN 46] to `N#CC(C#N)=Cc1ccc(O)c(O)c1` [TYRPHOSTIN 23], the “Proliferation [A570]” value rises from 1.04 to 1.07.

Going from `Oc1ccc(-c2nc(-c3ccncc3)c(-c3ccc(F)cc3)[nH]2)cc1` [SB-202190] to `Cc1ccc(NC(=O)c2cccc(N(C)C)c2)cc1NC(=O)c1ccc(O)cc1` [ZM 336372], the “Proliferation [A570]” value falls from 1.02 to 0.87.

Compared with `CC(C)n1cnc2c(NCc3ccccc3)nc(NCCO)nc21` [N9-isopropyl-olomoucine], `Cn1cnc2c(NCc3ccccc3)nc(NCCO)nc21` [Olomoucine] is higher in “Proliferation [A570]” value: 0.93 for the first, 0.98 for the second.

First: Cl.NC(N)=NCCNS(=O)(=O)c1cccc2cnccc12 [HA-1004·HCl]
Second: Cl.NCCNS(=O)(=O)c1cccc2cnccc12 [H-9·HCl]
The “Proliferation [A570]” value of the first is higher: 1.05 for the first, 1.03 for the second.

First: COC[C@H]1OC(=O)c2coc3c2[C@@]1(C)C1=C(C3=O)[C@@H]2CCC(=O)[C@@]2(C)C[C@H]1OC(C)=O [Wortmannin]
Second: CO[C@@H]1[C@H](N(C)C(=O)c2ccccc2)C[C@H]2O[C@]1(C)n1c3ccccc3c3c4c(c5c6ccccc6n2c5c31)C(=O)NC4 [PKC-4 12]
The “Proliferation [A570]” value of the first is higher: 0.86 for the first, 0.78 for the second.

First: O=C1Nc2ccccc2/C1=C1/Nc2ccccc2C1=O [Indirubin]
Second: O=C1Nc2ccccc2/C1=C1/Nc2ccccc2/C1=N\O [Indirubin-3'-monooxime]
The “Proliferation [A570]” value of the first is higher: 1.09 for the first, 0.87 for the second.

First: N#C/C(=C\c1ccc(O)c(O)c1)C(=O)Nc1ccccc1 [AG-4 94]
Second: CC(C)c1cc(/C=C(\C#N)C(=O)NCCCc2ccccc2)cc(C(C)C)c1O [SU1498]
The “Proliferation [A570]” value of the first is lower: 0.97 for the first, 0.98 for the second.

Compared with `O=C1Nc2ccc(I)cc2/C1=C/c1cc(Br)c(O)c(Br)c1` [GW 5074], `CN(C)CCCn1cc(C2=C(c3c[nH]c4ccccc34)C(=O)NC2=O)c2ccccc21` [GF 109203X] is higher in “Proliferation [A570]” value: 0.93 for the first, 0.95 for the second.

First: C=CC(=O)c1ccc2ccccc2c1 [ZM 449829]
Second: CC(C)c1cnc(NC(=O)Cc2ccccc2)s1 [BML-259]
The “Proliferation [A570]” value of the first is lower: 0.98 for the first, 1.09 for the second.

First: COc1cc2ncnc(Nc3cccc(Cl)c3)c2cc1OC [TYRPHOSTIN AG 1478]
Second: COc1cccc(-c2cc(=O)c3ccccc3o2)c1N [PD-98059]
The “Proliferation [A570]” value of the first is lower: 0.72 for the first, 1.01 for the second.

First: Cc1ccc(-c2nn(C(C)(C)C)c3ncnc(N)c23)cc1 [PP1]
Second: CC(C)(C)n1nc(-c2ccc(Cl)cc2)c2c(N)ncnc21 [PP2]
The “Proliferation [A570]” value of the first is lower: 0.80 for the first, 0.86 for the second.

`Nc1ncc2[nH]cnc2n1` [2-Am inopurine] and `Cn1cnc2nc(NCCO)nc(NCc3ccccc3)c21` [Iso-olomoucine] are the same in “Proliferation [A570]” value: 0.96 for the first, 0.96 for the second.

First: Cl.O=S(=O)(c1cccc2c(I)cccc12)N1CCCNCC1 [ML-7·HCl]
Second: Cl.Cl.O=S(=O)(c1cccc2cnccc12)N1CCCNCC1 [HA-1077·2HCl]
The “Proliferation [A570]” value of the first is lower: 0.95 for the first, 0.99 for the second.

First: N#CC(C#N)=C(N)/C(C#N)=C/c1cc(O)c(O)c(O)c1 [TYRPHOSTIN 51]
Second: N#CC(C#N)=Cc1cc(O)c(O)c(O)c1 [TYRPHOSTIN 25]
The “Proliferation [A570]” value of the first is lower: 1.05 for the first, 1.12 for the second.

Compared with `Cl.Cl.O=S(=O)(NCCNC/C=C/c1ccc(Br)cc1)c1cccc2cnccc12` [H-89·2HCl], `COc1ccc(S(=O)(=O)N(CCO)c2ccccc2CN(C)C/C=C/c2ccc(Cl)cc2)cc1` [KN-93] is lower in “Proliferation [A570]” value: 0.97 for the first, 0.92 for the second.

Compared with `CS(=O)(=O)O.Cn1cc(C2=C(c3cn(CCCSC(=N)N)c4ccccc34)C(=O)NC2=O)c2ccccc21` [Ro 31-8220 mesylate], `O=c1cc(N2CCOCC2)oc2c(-c3ccccc3)cccc12` [LY 294002] is higher in “Proliferation [A570]” value: 0.51 for the first, 0.92 for the second.

First: O=C(O)c1cc(N(Cc2ccccc2O)Cc2cc(O)ccc2O)ccc1O [Lavendustin A]
Second: O=C(O)c1cc(NCc2cc(O)ccc2O)ccc1O [2-Hydroxy-5-(2,5-dihydroxybenzylamino)benzoi c acid]
The “Proliferation [A570]” value of the first is higher: 1.15 for the first, 1.01 for the second.

Going from `CCCCCCCCCCCCCCCC(=O)OC(CC(=O)[O-])C[N+](C)(C)C` (racemic) [Palmitoyl-DL-carnitine] to `COC(=O)/C=C/c1cc(O)ccc1O` [Erbstatin analog], the “Proliferation [A570]” value rises from 0.91 to 1.12.

First: C[C@@H](N)[C@H]1CC[C@H](C(=O)Nc2ccncc2)CC1.Cl.Cl [Y-27632·2HCl]
Second: Cc1ccc(S(=O)(=O)/C=C/C#N)cc1 [BAY 11-7082]
The “Proliferation [A570]” value of the first is lower: 1.02 for the first, 1.14 for the second.

system: A431/CCKBR-tumor bearing nude mice; experiment: not given; settings: co-injection of 60 nmol minigastrin

LEEEEEAYGWMDF [minigastrin] was tested, and the “[177Lu]Lu-PP-F11N kidney uptake with blocking” value was “not affected”.

In the case of LEEEEEAYGWMDF [minigastrin], the “[177Lu]Lu-PP-F11N uptake in the tumor and stomach with blocking” value is reported as “reduced”.
